# Experimental data published in patent US20050112573A1, “Method of detecting toxic substance” (priority 2001, published 2005).
# Test system: yeast genes (level of expressed mRNA)
# Test: DNA chip analysis of expressed mRNA of yeast genes after 2 h culture with a toxic chemical substance
# Format: cell-based, Saccharomyces cerevisiae S288C
# Description: Yeast (Saccharomyces cerevtisiae S288C (α SUC2mal mel gap2 CUP1)) were cultured at 25° C. on YPD medium (yeast extract 1%, polypepton 2%, glucose 2%). One of toxic chemical substances was added to the cell at logarithmic growth phase, and the cell was further cultured for two hours. Cell was cultured without any chemical substance in the same condition, and was used as control. Concentrations of the chemical substances were defined to inhibit the growth of the yeast but not lead to death.
# After the completion of cultivation, the culture was centrifuged to collect the cells. To the cells, sodium acetate buffer (50 mM sodium acetate, 10 mM EDTA, 1% SDS) was added, and the mixture was shaken at 65° C. for five minutes, followed by returning to room temperature, and obtaining the supernatant, which procedure was repeated two times. To the supernatant, ½ amount of a solution of phenol/chloroform was added, and the mixture was centrifuged to give a supernatant, which was added with an equal amount of chloroform, and the mixture was centrifuged to give a supernatant. To the supernatant, an equal amount of isopropanol containing 0.3 M sodium acetate was added, and the mixture was allowed to stand at room temperature for 30 minutes, after which the mixture was centrifuged to give a sediment of the whole RNAs. Seventy % ethanol was added to the sediment, and the mixture was again centrifuged to give a sediment, which was then dried and dissolved in water. mRNA was isolated from the whole RNAs as followings. In view of the fact that a poly A chain is attached to the 3′ terminus of mRNA, a polynucleotide having a poly T structure which was immobilized on the surface of latex beads was used to trap the mRNA, and then the mRNA was washed and eluted with spine column (Oligotex-dT30<Super>mRNA Purification Kit, Takara). Reverse transcription of the mRNA was conducted with a reverse transcriptase (Super Script II Reverse Transcriptase; catalogue No. 18064-014, GibcoBRL) using fluorescence-labeled nucleotides to give cDNAs that were introduced with Cy3-dUTP or Cy5-dUTP during the reverse transcription.
# The labeled cDNAs were dissolved in TE buffer (10 mM Tris-HCl/1 mM EDTA, pH8.0), and the solution was dropped on the DNA chip containing the whole genes of yeast (DNA Chip Research Inc. Japan) so that the cDNAs were hybridized on the DNA chip at 65° C. for over 12 hours. The fluoresces intensity of the DNA chip was read with a scanner, and the ratio relative to the fluorescence intensity resulting from the absence of chemical substance was estimated as the following, which is shown in Tables 1 to 9: [formula]
# In the Tables, “Intensity” indicated in the rightmost column is a value of the level of expressed mRNA of each gene in control cells as divided by the average level of the expressions of the whole genes.
compound,measurement,setting,value
"CN(C)C(=S)SSC(=S)N(C)C [(10), Tetramethylthiuram disulfide]",The level of expressed mRNA in the presence of chemical substance/The level of expressed mRNA in the absence of chemical substance,yeast gene YAR010C,1.1
same,The level of expressed mRNA in the presence of chemical substance/The level of expressed mRNA in the absence of chemical substance,yeast gene YBL005W-A,1.5
same,The level of expressed mRNA in the presence of chemical substance/The level of expressed mRNA in the absence of chemical substance,yeast gene YBL041W,2.6
same,The level of expressed mRNA in the presence of chemical substance/The level of expressed mRNA in the absence of chemical substance,yeast gene YBL043W,14.7
same,The level of expressed mRNA in the presence of chemical substance/The level of expressed mRNA in the absence of chemical substance,yeast gene YBL078C,15.2
same,The level of expressed mRNA in the presence of chemical substance/The level of expressed mRNA in the absence of chemical substance,yeast gene YBR214W,3.5
same,The level of expressed mRNA in the presence of chemical substance/The level of expressed mRNA in the absence of chemical substance,yeast gene YCL020W,2.4
same,The level of expressed mRNA in the presence of chemical substance/The level of expressed mRNA in the absence of chemical substance,yeast gene YCL027W,16.3
same,The level of expressed mRNA in the presence of chemical substance/The level of expressed mRNA in the absence of chemical substance,yeast gene YCR004C,2.1
same,The level of expressed mRNA in the presence of chemical substance/The level of expressed mRNA in the absence of chemical substance,yeast gene YCR071C,1.2
same,The level of expressed mRNA in the presence of chemical substance/The level of expressed mRNA in the absence of chemical substance,yeast gene YCR088W,0.9
same,The level of expressed mRNA in the presence of chemical substance/The level of expressed mRNA in the absence of chemical substance,yeast gene YDL008W,3.0
same,The level of expressed mRNA in the presence of chemical substance/The level of expressed mRNA in the absence of chemical substance,yeast gene YDL238C,2.7
same,The level of expressed mRNA in the presence of chemical substance/The level of expressed mRNA in the absence of chemical substance,yeast gene YDR055W,2.4
same,The level of expressed mRNA in the presence of chemical substance/The level of expressed mRNA in the absence of chemical substance,yeast gene YDR084C,0.6
same,The level of expressed mRNA in the presence of chemical substance/The level of expressed mRNA in the absence of chemical substance,yeast gene YDR085C,2.3
same,The level of expressed mRNA in the presence of chemical substance/The level of expressed mRNA in the absence of chemical substance,yeast gene YDR104C,2.7
same,The level of expressed mRNA in the presence of chemical substance/The level of expressed mRNA in the absence of chemical substance,yeast gene YDR115W,1.0
same,The level of expressed mRNA in the presence of chemical substance/The level of expressed mRNA in the absence of chemical substance,yeast gene YDR259C,1.8
same,The level of expressed mRNA in the presence of chemical substance/The level of expressed mRNA in the absence of chemical substance,yeast gene YDR315C,1.6
same,The level of expressed mRNA in the presence of chemical substance/The level of expressed mRNA in the absence of chemical substance,yeast gene YDR358W,3.2
same,The level of expressed mRNA in the presence of chemical substance/The level of expressed mRNA in the absence of chemical substance,yeast gene YDR388W,0.9
same,The level of expressed mRNA in the presence of chemical substance/The level of expressed mRNA in the absence of chemical substance,yeast gene YDR432W,0.8
same,The level of expressed mRNA in the presence of chemical substance/The level of expressed mRNA in the absence of chemical substance,yeast gene YDR481C,1.6
same,The level of expressed mRNA in the presence of chemical substance/The level of expressed mRNA in the absence of chemical substance,yeast gene YDR510W,2.5
same,The level of expressed mRNA in the presence of chemical substance/The level of expressed mRNA in the absence of chemical substance,yeast gene YEL042W,0.3
same,The level of expressed mRNA in the presence of chemical substance/The level of expressed mRNA in the absence of chemical substance,yeast gene YEL066W,2.4
same,The level of expressed mRNA in the presence of chemical substance/The level of expressed mRNA in the absence of chemical substance,yeast gene YER039C,0.8
same,The level of expressed mRNA in the presence of chemical substance/The level of expressed mRNA in the absence of chemical substance,yeast gene YER107C,0.5
same,The level of expressed mRNA in the presence of chemical substance/The level of expressed mRNA in the absence of chemical substance,yeast gene YER130C,1.3
same,The level of expressed mRNA in the presence of chemical substance/The level of expressed mRNA in the absence of chemical substance,yeast gene YFL028C,1.8
same,The level of expressed mRNA in the presence of chemical substance/The level of expressed mRNA in the absence of chemical substance,yeast gene YFL043C,3.8
same,The level of expressed mRNA in the presence of chemical substance/The level of expressed mRNA in the absence of chemical substance,yeast gene YGL158W,0.9
same,The level of expressed mRNA in the presence of chemical substance/The level of expressed mRNA in the absence of chemical substance,yeast gene YGL229C,1.7
same,The level of expressed mRNA in the presence of chemical substance/The level of expressed mRNA in the absence of chemical substance,yeast gene YGR136W,2.2
same,The level of expressed mRNA in the presence of chemical substance/The level of expressed mRNA in the absence of chemical substance,yeast gene YGR189C,0.9
same,The level of expressed mRNA in the presence of chemical substance/The level of expressed mRNA in the absence of chemical substance,yeast gene YGR213C,6.9
same,The level of expressed mRNA in the presence of chemical substance/The level of expressed mRNA in the absence of chemical substance,yeast gene YGR257C,1.9
same,The level of expressed mRNA in the presence of chemical substance/The level of expressed mRNA in the absence of chemical substance,yeast gene YHR004C,0.6
same,The level of expressed mRNA in the presence of chemical substance/The level of expressed mRNA in the absence of chemical substance,yeast gene YHR071W,7.2
same,The level of expressed mRNA in the presence of chemical substance/The level of expressed mRNA in the absence of chemical substance,yeast gene YHR139C,46.6
same,The level of expressed mRNA in the presence of chemical substance/The level of expressed mRNA in the absence of chemical substance,yeast gene YHR142W,0.9
same,The level of expressed mRNA in the presence of chemical substance/The level of expressed mRNA in the absence of chemical substance,yeast gene YIL123W,0.2
same,The level of expressed mRNA in the presence of chemical substance/The level of expressed mRNA in the absence of chemical substance,yeast gene YIL140W,0.6
same,The level of expressed mRNA in the presence of chemical substance/The level of expressed mRNA in the absence of chemical substance,yeast gene YJL073W,0.7
same,The level of expressed mRNA in the presence of chemical substance/The level of expressed mRNA in the absence of chemical substance,yeast gene YJL089W,3.9
same,The level of expressed mRNA in the presence of chemical substance/The level of expressed mRNA in the absence of chemical substance,yeast gene YJL116C,2.6
same,The level of expressed mRNA in the presence of chemical substance/The level of expressed mRNA in the absence of chemical substance,yeast gene YJR004C,0.7
same,The level of expressed mRNA in the presence of chemical substance/The level of expressed mRNA in the absence of chemical substance,yeast gene YJR086W,1.1
same,The level of expressed mRNA in the presence of chemical substance/The level of expressed mRNA in the absence of chemical substance,yeast gene YKL008C,0.4
